Data published in ChEMBL document CHEMBL1141392, “Green tea catechins potentiate triclosan binding to enoyl-ACP reductase from Plasmodium falciparum (PfENR)” (J Med Chem, 2007).
pIC50, pKi: −log10 of the molar value.

Key:
[1] = molecular target: T1, Enoyl-[acyl-carrier-protein] reductase [NADH] FabI (Escherichia coli K-12, UniProt P0AEK4); assay: Inhibition of Escherichia coli ENR
T1 sequence (P0AEK4 whole entry): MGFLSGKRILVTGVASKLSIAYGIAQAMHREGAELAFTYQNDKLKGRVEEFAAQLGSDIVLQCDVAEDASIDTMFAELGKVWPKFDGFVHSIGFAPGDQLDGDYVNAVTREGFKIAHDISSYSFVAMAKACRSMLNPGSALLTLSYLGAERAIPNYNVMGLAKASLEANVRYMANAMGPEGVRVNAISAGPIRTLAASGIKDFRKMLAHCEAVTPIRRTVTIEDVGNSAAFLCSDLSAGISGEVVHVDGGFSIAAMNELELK

[2] = molecular target: T2, Enoyl-acyl-carrier protein reductase (Plasmodium falciparum, UniProt Q965D5); assay: Inhibition of Plasmodium falciparum ENR using NADH substrate
T2 sequence (Q965D5 whole entry): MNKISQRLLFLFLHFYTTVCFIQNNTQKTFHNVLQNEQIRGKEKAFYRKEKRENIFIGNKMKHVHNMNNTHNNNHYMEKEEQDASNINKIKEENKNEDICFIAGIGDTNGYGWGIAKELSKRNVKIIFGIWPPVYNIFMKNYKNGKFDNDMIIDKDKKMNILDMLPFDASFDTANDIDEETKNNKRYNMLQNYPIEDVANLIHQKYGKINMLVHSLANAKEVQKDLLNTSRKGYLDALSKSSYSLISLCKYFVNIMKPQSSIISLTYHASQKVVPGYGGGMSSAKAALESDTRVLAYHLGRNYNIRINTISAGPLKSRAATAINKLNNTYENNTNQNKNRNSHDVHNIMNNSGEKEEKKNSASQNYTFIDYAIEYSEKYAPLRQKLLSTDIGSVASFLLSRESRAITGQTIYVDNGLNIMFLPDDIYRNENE

[3] = molecular target: T2, Enoyl-acyl-carrier protein reductase; assay: Inhibition of Plasmodium falciparum ENR using crotonyl-CoA substrate
[4] = molecular target: T2, Enoyl-acyl-carrier protein reductase; assay: Inhibition of Plasmodium falciparum ENR
[5] = molecular target: T2, Enoyl-acyl-carrier protein reductase; assay: Inhibition of Plasmodium falciparum ENR in presence of triclosan
[6] = molecular target: T2, Enoyl-acyl-carrier protein reductase; assay: Inhibition of Plasmodium falciparum ENR by fluorescence quenching in presence of EGC
[7] = molecular target: T2, Enoyl-acyl-carrier protein reductase; assay: Inhibition of Plasmodium falciparum ENR in presence of EGC by dilution assay
[8] = molecular target: T2, Enoyl-acyl-carrier protein reductase; assay: Inhibition of Plasmodium falciparum ENR in presence of butein by dilution assay
[9] = molecular target: T2, Enoyl-acyl-carrier protein reductase; assay: Inhibition of Plasmodium falciparum ENR in presence of ECG
[10] = molecular target: T2, Enoyl-acyl-carrier protein reductase; assay: Inhibition of Plasmodium falciparum ENR in presence of EGCG
[11] = molecular target: T2, Enoyl-acyl-carrier protein reductase; assay: Inhibition of Plasmodium falciparum ENR by fluorescence quenching in presence of ECG
[12] = molecular target: T2, Enoyl-acyl-carrier protein reductase; assay: Inhibition of Plasmodium falciparum ENR by fluorescence quenching in presence of quercetin
[13] = molecular target: T2, Enoyl-acyl-carrier protein reductase; assay: Inhibition of Plasmodium falciparum ENR in presence of butein
[14] = molecular target: T2, Enoyl-acyl-carrier protein reductase; assay: Inhibition of Plasmodium falciparum ENR in presence of ECG by dilution assay
[15] = molecular target: T2, Enoyl-acyl-carrier protein reductase; assay: Inhibition of Plasmodium falciparum ENR in presence of EGCG by dilution assay
[16] = molecular target: T2, Enoyl-acyl-carrier protein reductase; assay: Inhibition of Plasmodium falciparum ENR by fluorescence quenching in presence of EGCG
[17] = molecular target: T2, Enoyl-acyl-carrier protein reductase; assay: Inhibition of Plasmodium falciparum ENR by fluorescence quenching in presence of butein
[18] = molecular target: T2, Enoyl-acyl-carrier protein reductase; assay: Inhibition of Plasmodium falciparum ENR in presence of EGC
[19] = molecular target: T2, Enoyl-acyl-carrier protein reductase; assay: Inhibition of Plasmodium falciparum ENR in presence of quercetin
[20] = molecular target: T2, Enoyl-acyl-carrier protein reductase; assay: Inhibition of Plasmodium falciparum ENR in presence of quercetin by dilution assay

Row | SMILES | pIC50 [1] | pKi [2] | pKi [3] | pIC50 [4] | pKi [5] | other results
1 | O=C(/C=C/c1ccc(O)c(O)c1)c1ccc(O)cc1O [BUTEIN] | 4.52 | 5.26 | 5.53 | 4.90 | 7.85 | –
2 | O=C(O[C@@H]1Cc2c(O)cc(O)cc2O[C@@H]1c1ccc(O)c(O)c1)c1cc(O)c(O)c(O)c1 [EPICATECHIN GALLATE] | 5.00 | 6.54 | 6.99 | 6.30 | 7.80 | –
3 | Oc1cc(O)c2c(c1)O[C@H](c1cc(O)c(O)c(O)c1)[C@H](O)C2 [EPIGALLOCATECHIN] | < 4.00 | 5.43 | 5.70 | 5.15 | 7.76 | –
4 | O=C(O[C@@H]1Cc2c(O)cc(O)cc2O[C@@H]1c1cc(O)c(O)c(O)c1)c1cc(O)c(O)c(O)c1 [EPIGALOCATECHIN GALLATE] | 4.82 | 6.73 | 7.10 | 6.60 | 8.10 | –
5 | O=c1c(O)c(-c2ccc(O)c(O)c2)oc2cc(O)cc(O)c12 [QUERCETIN] | 4.70 | 5.96 | 6.33 | 5.60 | 7.66 | –
6 | Oc1cc(Cl)ccc1Oc1ccc(Cl)cc1Cl [TRICLOSAN] | – | – | – | – | – | pKi [6]: 7.28; pKi [7]: 9.96; pKi [8]: 9.10; pKi [9]: 8.10; pKi [10]: 9.00; pKi [11]: 7.55; pKi [12]: 7.52; pKi [13]: 7.86; pKi [14]: 10.28; pKi [15]: 11.72; pKi [16]: 8.14; pKi [17]: 7.15; pKi [18]: 8.08; pKi [19]: 8.00; pKi [20]: 9.55
